These results are taken from US20150157021A1, “NEW ANTIFUNGAL COMPOSITIONS” (DSM IP ASSETS B.V., priority 2012, published 2015).

Assay type in all cases: in vivo
One experiment relates to Penicillium italicum. Briefly: Treatment of wounded oranges inoculated with Penicillium italicum (Examples 7, 8). The note with it: 20° C. The procedure:
Ten fresh, organic oranges were used per treatment. Each orange was soaked in a 180 ppm hypochlorite solution for 10 minutes, then rinsed thoroughly with fresh tap water and dried. The peel of each disinfected orange was wounded once using a cork borer according to the method described by de Lapeyre de Bellaire and Dubois (1987). Subsequently, each wound was inoculated with 10 μl of a Penicillium italicum suspension containing 1×10^5 of spores/ml. After incubation for 3 hours at 20° C., each wound and the orange peel area of 1 cm around the wound was treated with in total 150 μl of a freshly prepared aqueous antifungal composition comprising either 500 ppm natamycin (DSM Food Specialties, Delft, The Netherlands), 800 ppm boscalid or both. Each antifungal composition also comprised 3.2% (w/w) beeswax, 0.8% (w/w) glycerol, 0.7% (w/w) polyoxyethylene sorbitan monostearate (Tween 60), 0.2% (w/w) polyoxyethylene sorbitan monooleate (Tween 80), 0.05% (w/w) methylhydroxyethyl-cellulose (MHEC), 0.03% (w/w) anti-foaming agent, 0.02% (w/w) xanthan gum, 0.02% (w/w) citric acid, 0.01% (w/w) lactic acid and 0.01% potassium sorbate. A composition without natamycin or boscalid was used as control. […] The treated oranges were incubated in a closed box in the dark at 20° C. and assessed on mould growth during a 17-day incubation period. The antifungal activity (in %) of the individual and combined active ingredients was determined by calculating the reduction in mould growth observed on the oranges treated with the antifungal composition in comparison to the mould growth on the oranges treated with the control composition according to the Colby method (Colby, 1967) described in Example 5.
The experiment was conducted as described in Example 7, except for the fact that each wounded and inoculated orange was treated with 150 μl of a freshly prepared aqueous antifungal composition comprising either 250 ppm natamycin (DSM Food Specialties, Delft, The Netherlands), 400 ppm boscalid or both. The treated oranges were incubated in a closed box in the dark at 20° C. and assessed on mould growth during a 18-day incubation period. During incubation, the treated oranges were assessed on mould growth according to the method described in Example 7.

In experiment [1] the test system is Botrytis cinerea. Put plainly: Treatment of wounded sweet peppers inoculated with Botrytis cinerea (Examples 9, 10). Particulars: 20° C., 400 ppm natamycin. On the procedure: Ten fresh, organic sweet peppers were used per treatment. Each sweet pepper was soaked in a 180 ppm hypochlorite solution for 10 minutes, then rinsed thoroughly with fresh tap water and dried. The peel of each disinfected sweet pepper was wounded once using a cork borer according to the method described by de Lapeyre de Bellaire and Dubois (1987). Subsequently, each wound was inoculated with 10 μl of a Botrytis cinerea suspension containing 1×10^5 of spores/ml. After incubation for 3 hours at 20° C., each wound and the skin area of 0.5 cm around the wound was treated with in total 75 μl of a freshly prepared aqueous antifungal composition comprising either 400 ppm natamycin (DSM Food Specialties, Delft, The Netherlands), 600 ppm fenhexamid or both. Each antifungal composition also comprised 3.2% (w/w) beeswax, 0.8% (w/w) glycerol, 0.7% (w/w) polyoxyethylene sorbitan monostearate (Tween 60), 0.2% (w/w) polyoxyethylene sorbitan monooleate (Tween 80), 0.05% (w/w) methylhydroxyethyl-cellulose (MHEC), 0.03% (w/w) anti-foaming agent, 0.02% (w/w) xanthan gum, 0.02% (w/w) citric acid, 0.01% (w/w) lactic acid and 0.01% potassium sorbate. A composition without natamycin or fenhexamid was used as control.
The treated sweet peppers were incubated in a closed box in the dark at 20° C. and assessed on mould growth during a 26-day incubation period. The antifungal activity (in %) of the individual and combined active ingredients was determined by calculating the reduction in mould growth observed on the sweet peppers treated with the antifungal composition in comparison to the mould growth on the sweet peppers treated with the control composition according to the Colby method (Colby, 1967) described in Example 5.
The experiment was conducted as described in Example 9, except for the fact that each wounded and inoculated sweet pepper was treated with 75 μl of a freshly prepared aqueous antifungal composition comprising either 400 ppm natamycin (DSM Food Specialties, Delft, The Netherlands), 800 ppm carboxin or both. The treated sweet peppers were incubated in a closed box in the dark at 20° C. and assessed on mould growth during a 26-day incubation period. During incubation, the treated sweet peppers were assessed on mould growth according to the method described in Example 9.

For experiment [2], the system named is Botrytis cinerea. Put plainly: Treatment of wounded strawberries inoculated with Botrytis cinerea (Examples 5, 6). Particulars: for Observed antifungal activity O (%): strawberries, 20° C. The procedure: Twelve fresh, organic strawberries were used per treatment. Each strawberry was wounded with a 0.5 mm long cut and each wound was inoculated with 10 μl of a Botrytis cinerea suspension containing 1×10^5 of spores/ml. After a 3-hour incubation period at 20° C., each strawberry was dipped individually for 1 minute in a freshly prepared aqueous antifungal composition comprising either 500 ppm natamycin (DSM Food Specialties, Delft, The Netherlands), 500 ppm fenhexamid or both. Each antifungal composition also comprised 3.2% (w/w) beeswax, 0.8% (w/w) glycerol, 0.7% (w/w) polyoxyethylene sorbitan monostearate (Tween 60), 0.1% (w/w) polyoxyethylene sorbitan monooleate (Tween 80), 0.05% (w/w) methylhydroxyethyl-cellulose (MHEC), 0.03% (w/w) anti-foaming agent, 0.02% (w/w) xanthan gum, 0.02% (w/w) citric acid, 0.01% (w/w) lactic acid and 0.01% potassium sorbate. A composition without natamycin or fenhexamid was used as control. […] The treated strawberries were incubated in a closed box in the dark at 20° C. for 11 days.
The expected antifungal activity (E in %) of the combined antifungal composition comprising both active ingredients was calculated according to the Colby equation (Colby, 1967): […]
wherein X and Y are the observed antifungal activities (in %) of the individual active ingredients X and Y, respectively.
The experiment was conducted as described in Example 5, except for the fact that each wounded and inoculated strawberry was dipped individually for 1 minute in a freshly prepared aqueous antifungal composition comprising either 250 ppm natamycin (DSM Food Specialties, Delft, The Netherlands), 250 ppm fenhexamid or both. The treated strawberries were incubated in a closed box in the dark at 20° C. for 10 days. During incubation, the treated strawberries were assessed on mould growth according to the two methods described in Example 5.

As for `O=C(Nc1ccccc1-c1ccc(Cl)cc1)c1cccnc1Cl` [Boscalid, boscalid], the “Observed antifungal activity O (%)” value in the experiment with Penicillium italicum (7 days, 500 ppm natamycin, 800 ppm boscalid or both) was 54%; in the experiment on Penicillium italicum (8 days, 500 ppm natamycin, 800 ppm boscalid or both), 40%; with Penicillium italicum (9 days, 500 ppm natamycin, 800 ppm boscalid or both), 39%; in the experiment with Penicillium italicum (10 days, 500 ppm natamycin, 800 ppm boscalid or both) it was 29%; in the experiment on Penicillium italicum (11 days, 250 ppm natamycin, 400 ppm boscalid or both), 35%; with Penicillium italicum (11 days, 500 ppm natamycin, 800 ppm boscalid or both) it was 35%. Also, the “Observed antifungal activity O (%)” value in the experiment on Penicillium italicum (12 days, 250 ppm natamycin, 400 ppm boscalid or both) is reported as 22%; in the experiment with Penicillium italicum (12 days, 500 ppm natamycin, 800 ppm boscalid or both), 18%; with Penicillium italicum (13 days, 250 ppm natamycin, 400 ppm boscalid or both), 24%; with Penicillium italicum (13 days, 500 ppm natamycin, 800 ppm boscalid or both) it was 20%; with Penicillium italicum (14 days, 250 ppm natamycin, 400 ppm boscalid or both), 15%; with Penicillium italicum (14 days, 500 ppm natamycin, 800 ppm boscalid or both) it was 8%. Also, the “Observed antifungal activity O (%)” value is 10% with Penicillium italicum (15 days, 250 ppm natamycin, 400 ppm boscalid or both); 8% in the experiment with Penicillium italicum (15 days, 500 ppm natamycin, 800 ppm boscalid or both); 6% with Penicillium italicum (17 days, 250 ppm natamycin, 400 ppm boscalid or both); 0% in the experiment with Penicillium italicum (17 days, 500 ppm natamycin, 800 ppm boscalid or both); 1% with Penicillium italicum (18 days, 250 ppm natamycin, 400 ppm boscalid or both).

Take `CC1=C(C(=O)Nc2ccccc2)SCCO1` [Carboxin, carboxin]: the “Observed antifungal activity O (%)” value in the experiment on Botrytis cinerea [1] (17-19 days, 800 ppm carboxin or both) amounted to 67%; with Botrytis cinerea [1] (20-21 days, 800 ppm carboxin or both), 55%; with Botrytis cinerea [1] (22 days, 800 ppm carboxin or both), 45%; in the experiment on Botrytis cinerea [1] (24 days, 800 ppm carboxin or both) it was 42%; in the experiment with Botrytis cinerea [1] (25 days, 800 ppm carboxin or both), 41%; with Botrytis cinerea [1] (26 days, 800 ppm carboxin or both), 38%.

`CC1(C(=O)Nc2ccc(O)c(Cl)c2Cl)CCCCC1` [Fenhexamid, fenhexamid]: the “Number of moulded strawberries/total number of 12 strawberries” value is recorded as 11/12 in the experiment on Botrytis cinerea [2] (Day 5, 20° C., 250 ppm natamycin, 250 ppm fenhexamid or both); 11 with Botrytis cinerea [2] (Day 5, 20° C., 250 ppm natamycin, 250 ppm fenhexamid or both, listed as fenhexamid); 12/12 in the experiment on Botrytis cinerea [2] (Day 6, 20° C., 500 ppm natamycin, 500 ppm fenhexamid or both); 11/12 in the experiment with Botrytis cinerea [2] (Day 6-7, 20° C., 250 ppm natamycin, 250 ppm fenhexamid or both); 11 in the experiment with Botrytis cinerea [2] (Day 6-7, 20° C., 250 ppm natamycin, 250 ppm fenhexamid or both, listed as fenhexamid); 12/12 in the experiment on Botrytis cinerea [2] (Day 7-8, 20° C., 500 ppm natamycin, 500 ppm fenhexamid or both). Moreover, the “Number of moulded strawberries/total number of 12 strawberries” value in the experiment with Botrytis cinerea [2] (Day 8, 20° C., 250 ppm natamycin, 250 ppm fenhexamid or both) was 12/12; with Botrytis cinerea [2] (Day 8, 20° C., 250 ppm natamycin, 250 ppm fenhexamid or both, listed as fenhexamid), 12; with Botrytis cinerea [2] (Day 9, 20° C., 500 ppm natamycin, 500 ppm fenhexamid or both), 12/12. The “Number of moulded strawberries of 12” value in the experiment on Botrytis cinerea [2] (after 6 through 9 days of incubation, 500 ppm natamycin alone or 500 ppm fenhexamid alone) is recorded as 12. For the same compound, the “Observed antifungal activity O (%)” value in the experiment on Botrytis cinerea [2] (4 days, 500 ppm natamycin, 500 ppm fenhexamid or both) is on record as 22%; in the experiment with Botrytis cinerea [2] (5 days, 500 ppm natamycin, 500 ppm fenhexamid or both), 25%; in the experiment on Botrytis cinerea [2] (6 days, 500 ppm natamycin, 500 ppm fenhexamid or both) it was 0%; with Botrytis cinerea [2] (7 days, 500 ppm natamycin, 500 ppm fenhexamid or both) it was 0%; in the experiment with Botrytis cinerea [2] (8 days, 250 ppm natamycin, 250 ppm fenhexamid or both) it was 7.5%; in the experiment on Botrytis cinerea [2] (8 days, 500 ppm natamycin, 500 ppm fenhexamid or both), 0%. Also, the “Observed antifungal activity O (%)” value with Botrytis cinerea [2] (9 days, 250 ppm natamycin, 250 ppm fenhexamid or both) is given as 0%; in the experiment on Botrytis cinerea [2] (9 days, 500 ppm natamycin, 500 ppm fenhexamid or both), 0%; in the experiment with Botrytis cinerea [2] (10 days, 250 ppm natamycin, 250 ppm fenhexamid or both), 0%; with Botrytis cinerea [2] (10 days, 500 ppm natamycin, 500 ppm fenhexamid or both), 0%; in the experiment with Botrytis cinerea [2] (11 days, 500 ppm natamycin, 500 ppm fenhexamid or both), 0%; in the experiment on Botrytis cinerea [1] (13-17 days, 600 ppm fenhexamid or both), 0%. Further, the “Observed antifungal activity O (%)” value in the experiment on Botrytis cinerea [1] (18-22 days, 600 ppm fenhexamid or both) was 0%; in the experiment on Botrytis cinerea [1] (6 days, 600 ppm fenhexamid or both), 0%; in the experiment with Botrytis cinerea [1] (8 days, 600 ppm fenhexamid or both), 0%; in the experiment with Botrytis cinerea [1] (10 days, 600 ppm fenhexamid or both), 00%; with Botrytis cinerea [1] (11 days, 600 ppm fenhexamid or both), 0%; in the experiment with Botrytis cinerea [1] (24 days, 600 ppm fenhexamid or both), 0%. The “Observed antifungal activity O (%)” value turned out to be 0% in the experiment with Botrytis cinerea [1] (25 days, 600 ppm fenhexamid or both) and 0% with Botrytis cinerea [1] (26 days, 600 ppm fenhexamid or both).
